Data as given in patent US20220306623A1, “PYRIDYL OR PYRIMIDYL MTOR KINASE INHIBITORS” (GLAXOSMITHKLINE INTELLECTUAL PROPERTY DEVELOPMENT LIMITED, priority 2019, published 2022).

tested on: type I collagen deposition in primary lung fibroblasts derived from human tissue; assay: High throughput type I collagen deposition (scar-in-a-jar) high content screening assay; type: cell-based; conditions: Primary lung fibroblast, 72 h, human pulmonary fibroblasts, 384-well, TGF-β 1 ng/ml 72 h, total collagen area, read-out: mean pIC50, high throughput type I collagen deposition (scar-in-a-jar) (converted)
Experimental: Highthroughput, cellular type I collagen deposition was measured by adapting a published method; scar-in-a-jar (Chen et al., 2009) to primary lung fibroblasts derived from human tissue and combining with high content analysis to permit fluorescent quantification of collagen deposited in the extracellular matrix (ECM). The human biological samples were sourced ethically and their research use was in accordance with the terms of the informed consents.
Test compounds were dissolved in 100% DMSO to give 10 mM (stocks) and further diluted to give half log dilutions to generate an 11 point concentration response curve. 1 ul was transferred to 384-well plates (Greiner Group, Kremsmunster, Austria, Catalogue No Greine 781280r).
Human pulmonary fibroblasts were maintained in DMEM media (Gibco, Catalogue No 21969) supplemented with 4 mM L-glutamine (Gibco Catalogue No 25030-024) and 10% heat inactivated FBS (Gibco, Catalogue No 10099-141) at 37° C. in 10% CO2. Cells were harvested and resuspended at 4×10^6 cells/ml in a T175 cell culture flask (BD Falcom, Catalogue No: 353112) containing 50 mL of culture media. After 4 days 37° C. in 10% CO2, cells were harvested and seeded at 4000 cells per well ([…]) into 384-well plates (BD Falcon, Catalogue No 353962Greiner) in assay media (0.4% heat inactivated FBS, 4 mM L-glutamine). Plates were sealed with breathable seals (Sigma, Catalogue No. BEM-1). Assay plates were incubated for 72 h at 37° C. in 10% CO2.
Assay media was supplemented with 112.5 mg/ml Ficoll 70 (Sigma, Catalogue No F2878), 75 mg/ml Ficoll 400 (Sigma, Catalogue No F4375) and 50 µg/ml ascorbic acid (Sigma, Catalogue No A8960). 30 μL assay media were added to 1 l compound ([…] compound concentration in 1% DMSO). Diluted compounds (10 μL) were transferred to plates containing cells and incubated for 3 h at 37° C. in 10% CO2. Transforming growth factor (TGF)-β (R&D systems, Catalogue No 100-B/CF) was reconstituted to give 10 µg/mL (stock) and further diluted in assay media containing Ficoll and ascorbic acid (1 in 3333). TGF-β was added to cell plates (1 ng/ml final) and cells incubated for 72 h at 37° C. in 10% CO2.
Media was aspirated from cells and 30 µL/well 100% ice-cold methanol added and incubated at RT for 5 min to fix cells. Methanol was aspirated and cells washed with PBS (3×). To block and permeabilise, cells were incubated with PBS containing 1% BSA and 0.1% Triton X 100 for 20 min, followed by PBS wash (3×). Cells were incubated with mouse anti human type I collagen monoclonal antibody (Sigma, Catalogue No C2456) diluted 1:1000 in PBS for 24 h at 4° C. Cells were washed with PBS containing 0.1% Tween-20 (3×) and incubated with secondary alexa fluor 488 goat-anti-mouse antibody (Invitrogen, Catalogue No A11001, 1 in 500 in PBS) and Hoechst 33342 (Sigma, Catalogue No H21492), 1 in 1000 in PBS) for 1 h at RT, prior to washing with PBS containing 0.1% Tween (×4).
Type I collagen immunoreactivity was detected using the INCell 2000 Analyzer (GE Healthcare, INcell 2000) set to excitation and emission wavelengths for DAPI and FITC with laser focus and exposure adjusted to appropriate levels. Images were imported and analysed using Columbus software (Perkin Elmer) and computational algorithms to quantify “total collagen area” and “cell count”.
Data analysis was performed by determining 0/inhibition values for test compounds relative to the minimum (media only) and maximum responses (TGF-βstimulation) with non-linear regression analysis to determine IC50 values for test compounds.

| Compound | IC50 [nM] |
| --- | --- |
| CC[C@H]1COCCN1c1cc(C2(S(C)(=O)=O)CCN(C)CC2)cc(-c2ccc3[nH]c(C)cc3n2)n1 [Example 19, (S)-3-ethyl-4-(6-(2-methyl-1H-pyrrolo[3,2-b]pyridin-5-yl)-4-(1-methyl-4-(methylsulfonyl)piperidin-4-yl)pyridin-2-yl)morpholine] | 20 to 3160 |
| CC[C@H]1COCCN1c1cc(C2(S(C)(=O)=O)CCN(C)CC2)cc(-c2ccc3[nH]c(CO)cc3n2)n1 [Example 20, (S)-(5-(6-(3-ethylmorpholino)-4-(1-methyl-4-(methylsulfonyl)piperidin-4-yl)pyridin-2-yl)-1H-pyrrolo[3,2-b]pyridin-2-yl)methanol] | 20 to 3160 |
| CC[C@H]1COCCN1c1cc(C2(S(C)(=O)=O)CCNCC2)nc(-c2ccc3[nH]c(C)cc3n2)n1 [Example 17, (3S)-3-ethyl-4-[6-(4-methanesulfonylpiperidin-4-yl)-2-{2-methyl-1H-pyrrolo[3,2-b]pyridin-5-yl}pyrimidin-4-yl]morpholine] | 20 to 3160 |
| CC[C@H]1COCC(=O)N1c1cc(CS(=O)(=O)N(C)C)cc(-c2ccc3[nH]c(CNC)cc3n2)n1 [Example 7, (S)-1-(2-(3-ethyl-5-oxomorpholino)-6-(2-((methylamino)methyl)-1H-pyrrolo[3,2-b]pyridin-5-yl)pyridin-4-yl)-N,N-dimethylmethanesulfonamide] | 20 to 3160 |
| CC[C@H]1COCC(=O)N1c1cc(CS(C)(=O)=O)cc(-c2ccc3[nH]c(CNC)cc3n2)n1 [Example 28, (S)-5-ethyl-4-(6-(2-((methylamino)methyl)-1H-pyrrolo[3,2-b]pyridin-5-yl)-4-((methylsulfonyl)methyl)pyridin-2-yl)morpholin-3-one] | 20 to 3160 |
